Measurements taken from patent US7705016B2, “Regulation of food intake by modulation of long-chain fatty acyl-CoA levels in the hypothalamus” (Albert Einstein College of Medicine of Yeshiva University, priority 2003, dated 2010).

Experiments:
hypothalamic CPT1 [1] = target: T1, hypothalamic CPT1 (Rattus norvegicus, UniProt P32198); experiment: ICV CPTi with or without glybenclamide or liver-selective vagotomy, pancreatic/insulin clamp (Example 4); format: in vivo; design: from tissue; host or cells: hypothalamus of living S-D rats; settings: ICV GLY in CON-infused rats (CON-GLY); not shown
T1 sequence (P32198 1-773): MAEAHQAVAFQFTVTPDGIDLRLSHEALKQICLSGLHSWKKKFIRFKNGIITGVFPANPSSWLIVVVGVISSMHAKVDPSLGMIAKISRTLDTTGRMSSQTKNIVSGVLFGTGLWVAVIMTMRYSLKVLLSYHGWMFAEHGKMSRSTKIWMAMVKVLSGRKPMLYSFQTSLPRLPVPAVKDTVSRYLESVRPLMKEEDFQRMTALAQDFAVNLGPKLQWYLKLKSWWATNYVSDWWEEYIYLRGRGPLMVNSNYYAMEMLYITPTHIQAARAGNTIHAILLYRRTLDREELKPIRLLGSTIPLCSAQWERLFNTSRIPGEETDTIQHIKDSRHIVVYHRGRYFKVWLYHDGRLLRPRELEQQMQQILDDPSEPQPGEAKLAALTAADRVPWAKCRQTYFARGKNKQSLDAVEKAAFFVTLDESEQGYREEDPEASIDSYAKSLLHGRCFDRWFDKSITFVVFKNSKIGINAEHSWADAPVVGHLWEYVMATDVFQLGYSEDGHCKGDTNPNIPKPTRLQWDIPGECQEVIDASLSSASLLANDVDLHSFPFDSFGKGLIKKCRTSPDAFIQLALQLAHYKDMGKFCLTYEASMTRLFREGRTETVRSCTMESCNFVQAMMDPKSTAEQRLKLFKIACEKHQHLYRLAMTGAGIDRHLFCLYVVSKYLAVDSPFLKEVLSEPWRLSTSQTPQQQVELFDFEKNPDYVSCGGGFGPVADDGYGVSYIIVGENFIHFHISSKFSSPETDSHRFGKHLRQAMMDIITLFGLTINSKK
Description: Decreasing Hypothalamic Lipid Oxidation Inhibits Endogenous Glucose Production (GP) via stimulation of K-channels (KATP) and Vagus Nerve. Administration either of the long-chain fatty acid (LCFA) oleic acid (OA) or of inhibitors of CPT-1 activity (CPT1) in the third cerebral ventricle (ICV) inhibits GP. Here, we hypothesize that inhibition of hypothalamic lipid oxidation with CPTi decreases GP via central activation of ATP-dependent potassium channels (KATP) leading to increased vagal input to the liver. […] All rats also received an IV infusion of [3-^3H]-glucose for the last 4 hr of ICV infusion and pancreatic/insulin clamp (insulin 1 mU/kg/min; somatostatin […]) during the last 2 hr of each study. In the presence of basal insulin levels, glucose infusion (GIR) was required to prevent hypoglycemia in the CPTi (4.9±1.0 mg/kg/min), but not in the CON (2.1±0.4 mg/kg/min) and CPTi-GLY (1.4±0.5 mg/kg/min) groups. […] To investigate whether this neural pathway acts via the hepatic branch of the vagus nerve, ICV CPTi or CON infusions were also performed in rats receiving liver-selective vagotomy (LV) or sham-operation (SH). GIR was markedly higher in CPTi-SH (4.7±1.3 mg/kg/min) compared with both CON-SH (1.3±0.4 mg/kg/min) and CPTi-LV (0.8±0.5 mg/kg/min). […]

KATP = experiment: IV lipid infusion with ICV glybenclamide or hepatic vagotomy, pancreatic clamp (Example 4); format: in vivo, rat; settings: near basal insulin (~27 μU/ml), groups S+ICVG, IL+ICVC
Description: Hepatic “Autoregulation” in Response to Lipid Infusion Requires Central Stimulation of K-channels (KATP) and Liver Vagal Innervation. […] Since the administration of the LCFA oleic acid in the third cerebral ventricle (ICV) inhibits GP via stimulation of KATP, here we test the hypotheses that: 1) the central activation of KATP by LCFAs restrains GP during lipid infusions, and 2) that this effect requires hepatic vagal input. To this end, 5 h fasted S-D rats were randomized to receive: IV Intralipid+heparin (IL) (increased LCFA levels by ˜3 fold) or saline (S) in combination with ICV Glybenclamide (G) [inhibitor of KATP] or vehicle (C) for 6 h. All rats also received IV infusions of [3-^3H]-glucose for the last 4 h and [U-^14C]-lactate for the last 10 min of the ICV infusion and a pancreatic clamp during the last 2 h of each study. During the clamp period, in the presence of near basal insulin levels (˜27 μU/ml), GP (˜6 mg/kg.min) was unchanged in S+ICVC, S+ICVG or IL+ICVC. […] To examine whether the central effects of LCFA on GP are mediated by vagal stimulation, we next repeated the lipid infusion studies in rats with selective hepatic vagotomy (HV). During the pancreatic clamp period, GP (˜6 mg/kg/min) was similar in S-treated HV and S or IL treated sham-operated rats. Importantly, IL increased GP to 9.7±0.5 (P<0.001) in HV, recapitulating the effect ICVG. […]

hypothalamic CPT1 [2] = target: T1, hypothalamic CPT1; experiment: ICV infusion with pancreatic-insulin clamp, glucose kinetics (Example 1); format: in vivo; design: CPT1 activity was measured in the particulate fraction of protein extracts from animals treated with ICV control injections; from tissue; host or cells: hypothalamus (arcuate nucleus) of male Sprague-Dawley rats, in vivo or ex vivo; Insulin (iU/ml): unit not given here; settings: for Food Intake: measured prior to acute ICV infusion, except CPT1L-Ribo group (3 days after ICV)
Description: Hypothalamic inhibition of CPT1 inhibits glucose production. Experiments were also designed to examine the effect of central inhibition of CPT-1 on whole body insulin action (FIG. 4a,b). Insulin action was assessed by a combination of ICV infusions with systemic pancreatic-insulin clamp studies (FIG. 4b). In these studies, the daily food intake was matched in the rats receiving ICV vector and ICV CPT1L-Ribo (Table 1). All rats also received an intra-arterial infusion of [3-^3H]-glucose for the last 4 hr of ICV infusion and a pancreatic/insulin clamp (insulin 1 mU/kg.min; somatostatin 3 μg/kg/min) during the last 2 hr of the study (Obici et al., 2002a; Obici et al., 2001). As expected in the presence of ˜basal circulating insulin levels (clamp procedure; Table 1), the rate of glucose infusion (GIR) required to maintain euglycemia was marginal in ICV control studies (vector-ST1340- or vehicle-infused animals; ˜0.8 mg/kg/min). By contrast, following ICV infusion of inhibitors of CPT-1 expression or activity glucose had to be infused at the rate of ˜5 mg/kg/min in order to prevent hypoglycemia. Thus, central inhibition of CPT-1 activity in the presence of fixed and basal insulin concentrations stimulates insulin action on glucose homeostasis.
(§1) Animal preparation for in vivo experiments. We studied ninety-three 10-week old male Sprague-Dawley rats (Charles River Breeding Laboratories, Wilmington, Mass.). Rats were housed in individual cages and subjected to a standard light-dark cycle. Three weeks prior to the in vivo studies, we placed a chronic catheter in the third cerebral ventricle by stereotaxic surgery (Obici et al., 2002a; Obici et al., 2001; Liu et al., 1998). One week before the pancreatic-insulin clamp protocols, we placed additional catheters in the right internal jugular and left carotid artery (Obici et al., 2001; Liu et al., 1998). All ICV solutions were dissolved in artificial cerebral spinal fluid (aCSF). Food intake was monitored daily.
Measurements of in vivo glucose kinetics and pancreatic-insulin clamp procedure. The infusion studies lasted a total of 360 min (FIG. 3a). Briefly, at t=0 min a primed-continuous ICV infusion of either CPT1 inhibitors or control solution was initiated and maintained for the remainder of the study. 2-tetradecylglydate (TDGA, a gift from Dr. Manuel Guzman) was dissolved in DMSO, diluted into aCSF (Harvard Apparatus) and infused ICV at a rate of 50 pmoles/hr. […] Prior to the pancreatic-insulin clamp studies, rats receiving ICV injection of either CPT1L-Ribo or vector control three days prior to the clamp procedure were randomized into two pair-fed experimental groups. A primed-continuous infusion of HPLC-purified [3-^3H]-glucose (New England Nuclear, Boston, Mass.; 40 μCi bolus, 0.4 μCi/min) was started at t=120 min and continued for the duration of the study (Obici et al., 2002a; Obici et al., 2001; Liu et al., 1998). Finally, a pancreatic-insulin clamp (Obici et al., 2002a; Obici et al., 2001; Liu et al., 1998) was initiated at t=240 min and lasted for 2 hours. This procedure involved the infusion of somatostatin (3 μg/kg/min), insulin (1 mU/kg/min), and glucose as needed to prevent hypoglycemia, or antibodies against C peptide (Linco) and Melanocortin Receptor type 2 (Chemicon). The rate of insulin infusion was designed to replace normal basal levels in postabsorptive rats.
Radioactivity of [^3H]glucose in plasma was measured from supernatants of Ba(OH)2 and ZnSO4 precipitates after evaporation to dryness for the removal of tritiated water (Somogyi pellet). The specific activity of tritiated water in plasma (Somogyi filtrate) was determined from the total counts of the protein-free supernatant before and after evaporation to dryness. Under steady state conditions for plasma glucose concentration, the rate of glucose disappearance (Rd) equals the rate of glucose appearance (Ra). […]

hypothalamic CPT1 [3] = target: T1, hypothalamic CPT1; experiment: Food intake after ICV bolus of CPT1 antagonists; format: in vivo; design: CPT1 activity was measured in the particulate fraction of protein extracts from animals treated with ICV control injections; from tissue; host or cells: hypothalamus (arcuate nucleus) of male Sprague-Dawley rats, in vivo or ex vivo; settings: single ICV injection
Description: Hypothalamic inhibition of CPT1 decreases food intake. First we examined whether central administration of molecular and pharmacological antagonists of CPT1 modulates feeding behavior in conscious rats (FIG. 3). […] Food intake was monitored in metabolic cages before and up to 72 h after the ICV injections (Obici et al., 2002a). […] The marked effect of ICV CPT1L-Ribo on food intake was significant when compared with either control vector or with an unrelated control ribozyme (FIG. 3c). […] The anorectic effect of central CPT1 inhibition lasted for at least 48 h following a single ICV administration. These decreases in food intake were significant compared with both baseline and vehicle/control (FIG. 3a-e). The changes from baseline induced by CPT1 inhibition were statistically significant at 24 h (−17.6±2.0 g and −12.4±3.9 g), and 48 h (−13.4±1.8 g and −7.8±3.8 g) following ICV administration of CP1L-Ribo and high dose ST 1326, respectively (FIGS. 3b and e). This represented a ˜50% decrease in daily food intake, which returned toward baseline values by 72 h.
as §1
Effect of central inhibition of CPT1 and food intake. We examined the effects of ICV CPT1L-Ribo and ST 1326 on food intake. Three-hours before the start of the dark cycle, CPT1L-Ribo or vector control, ST 1326 or ST 1340 was injected as a bolus via indwelling catheters implanted in the third cerebral ventricle. In the feeding studies, rats received a single bolus injection of 25 pmoles of ST1340 or two different doses (5 and 25 pmoles) of ST1326. Rats were adapted to the metabolic cages and their daily food intake had been constant (changes <10%) for a minimum of three consecutive days preceding the ICV injections. Food intake was continuously monitored for the following 72 h.

rats = settings: ICV, equimolar to oleic acid; cited from earlier work

GP (hypothalamic CPT1 [1]) | Body wt. (hypothalamic CPT1 [2]; Basal) [g] | FFA (hypothalamic CPT1 [2]; Basal) [mM] | Glucose (hypothalamic CPT1 [2]; Basal) [mM] | Insulin (hypothalamic CPT1 [2]; Basal) [ng/mL] | Leptin (hypothalamic CPT1 [2]; Basal) [ng/mL] | Food Intake (hypothalamic CPT1 [2]; Basal) [g] | FFA (hypothalamic CPT1 [2]; Clamp, steady-state) [mM] | Glucose (hypothalamic CPT1 [2]; Clamp, steady-state) [mM] | Insulin (iU/ml) (hypothalamic CPT1 [2]; Clamp, steady-state) | rate of glucose infusion (GIR) required to maintain euglycemia (hypothalamic CPT1 [2]; pancreatic-insulin clamp, ~basal insulin, ICV infusion) [mg/kg/min] | effect on food intake / feeding behavior (hypothalamic CPT1 [3]) | decrease in glucose production (GP) (hypothalamic CPT1 [2]; basal and equal insulin levels (~20 μU/ml), ICV) [%] | glucose production (GP) during pancreatic clamp vs ICV vehicle controls (hypothalamic CPT1 [2]; ~basal insulin concentrations, p<0.01) | SMILES | GP during the clamp period (KATP) [mg/kg.min] | suppressive effects of ICV oleic acid on food intake and on GP, with equimolar administration (rats)
did not alter | – | – | – | – | – | – | – | – | – | – | – | – | – | COc1ccc(Cl)cc1C(=O)NCCc1ccc(S(=O)(=O)NC(=O)NC2CCCCC2)cc1 [GLY, glybenclamide] | ~6 | –
– | 307 ± 6 | 0.4 ± 0.1 | 8.0 ± 1.0 | 1.4 ± 0.2 | 0.9 ± 0.2 | 22 ± 3 | 0.4 ± 0.1 | 8.2 ± 0.9 | 25 ± 4 | ~0.8 | failed to modify feeding behavior | – | – | CCCCCCCCCCCCCCNC(=O)N[C@@H](CC(=O)[O-])C[N+](C)(C)C [ST1340, (S)-N-(tetradecylcarbamoyl)-aminocarnitine] | – | –
– | 319 ± 10 | 0.5 ± 0.1 | 8.2 ± 0.8 | 1.9 ± 0.1 | 1.7 ± 0.1 | 25 ± 2 | 0.5 ± 0.1 | 8.1 ± 0.5 | 25 ± 3 | – | – | 47±6 | markedly inhibited GP | CCCCCCCCCCCCCCC1(C(=O)O)CO1 (stereo not shown) [TDGA, 2-tetradecylglydate] | – | –
– | – | – | – | – | – | – | – | – | – | – | – | – | – | CCCCCCCC(=O)O [octanoic acid] | – | not replicated
